Measurements reported in ChEMBL document CHEMBL6103589, “Synthesis and evaluation of novel ebselen derivatives as urease inhibitors for combating Helicobacter pylori infections” (Eur J Med Chem, 2025).
Activity calls are given as the source filed them. The rule behind the calls is not given here.

Legend:
Helicobacter pylori [1] = test: (§1) Protection against Helicobacter pylori ATCC 43504 infected (MOI 25:1) in human GES1 cell injury model assessed as necrotic cells at 25 uM pre-treated for 2 hrs followed by bacterial infection measured after 6 hrs by Annexin/V-FITC staining based flow cytometry analysis (reference value: 0.66%); type: functional; details: time 8 hrs
Helicobacter pylori [2] = test: as §1, with “as early apoptotic” for “as necrotic”, “at 50” for “at 25”, “value: 9.89%)” for “value: 0.66%)”; type: functional; details: time 8 hrs
[3] = Acute toxicity in BALB/c mouse assessed as pathological abnormality in heart at 1 g/Kg, po single dose administered for 7 days by HE staining based analysis; type: organism-based; details: in vivo, 1000 mg/kg, 168 h, time 7 day
Helicobacter pylori [4] = test: as §1, with “400:1)” for “25:1)”, “reduction in cell apoptosis rate” for “necrotic cells”, “50” for “25”, “56.03%)” for “0.66%)”; type: functional; set-up: scale not given: the % may be the effect or the level left; details: time 8 hrs
Helicobacter pylori [5] = test: as §1, with “400:1)” for “25:1)”, “early apoptotic” for “necrotic”, “42.41 %)” for “0.66%)”; type: functional; details: time 8 hrs
Helicobacter pylori [6] = test: In vivo protection against Helicobacter pylori ATCC 43504 infected in BALB/c mouse gastric mucosa model assessed as appearance of intact tissue structure at 25 mg/kg administered once a day for 2 weeks by HE staining based analysis; type: functional, organism-based
Helicobacter pylori [7] = test: Protection against Helicobacter pylori ATCC 43504 infected (MOI 50:1) in human GES1 cell injury model assessed as early apoptotic cells at 25 uM pre-treated for 2 hrs measured after 6 hrs by Annexin/V-FITC staining based flow cytometry analysis (reference value: 13.16 %); type: functional; details: time 8 hrs
Helicobacter pylori [8] = test: (§2) Protection against Helicobacter pylori ATCC 43504 infected (MOI 50:1) in human GES1 cell injury model assessed as viable cells at 50 uM pre-treated for 2 hrs followed by bacterial infection measured after 6 hrs by Annexin/V-FITC staining based flow cytometry analysis (reference value: 81.14%); type: functional; details: time 8 hrs
Helicobacter pylori [9] = test: Protection against Helicobacter pylori ATCC 43504 infected (MOI 25:1) in human GES1 cell injury model assessed as viable cells at 25 uM pre-treated for 2 hrs measured after 6 hrs by Annexin/V-FITC staining based flow cytometry analysis (reference value: 89.14%); type: functional; details: time 8 hrs
Helicobacter pylori [10] = test: as §1, with “400:1)” for “25:1)”, “reduction in cell apoptosis rate” for “necrotic cells”, “56.03%)” for “0.66%)”; type: functional; set-up: scale not given: the % may be the effect or the level left; details: time 8 hrs
[11] = Acute toxicity in BALB/c mouse assessed as change in daily behaviour at 1 g/Kg, po single dose administered for 7 days; type: organism-based; details: in vivo, 1000 mg/kg, 168 h, time 7 day
Helicobacter pylori [12] = test: as §1, with “300:1)” for “25:1)”, “late apoptotic” for “necrotic”, “11.95%)” for “0.66%)”; type: functional; details: time 8 hrs
Helicobacter pylori [13] = test: In vivo protection against Helicobacter pylori ATCC 43504 infected in BALB/c mouse gastric mucosa model assessed as effect on inflammatory cell infiltration at 25 mg/kg administered once a day for 2 weeks by HE staining based analysis; type: functional, organism-based
Helicobacter pylori [14] = test: Protection against Helicobacter pylori ATCC 43504 infected (MOI 25:1) in human GES1 cell injury model assessed as viable cells at 50 uM pre-treated for 2 hrs followed by bacterial infection measured after 6 hrs by Annexin/V-FITC staining based flow cytometry analysis (reference value: 89.14%); type: functional; details: time 8 hrs
Helicobacter pylori [15] = test: as §2, with “200:1)” for “50:1)”, “late apoptotic” for “viable”, “6.28%)” for “81.14%)”; type: functional; details: time 8 hrs
Helicobacter pylori [16] = test: In vivo protection against Helicobacter pylori ATCC 43504 infected in BALB/c mouse gastric mucosa model assessed as appearance of intact epithelium at high dose administered once a day for 2 weeks by HE staining based analysis; type: functional, organism-based
Helicobacter pylori [17] = test: Protection against Helicobacter pylori ATCC 43504 infected (MOI 400:1) in human GES1 cell injury model assessed as viable cells at 25 uM pre-treated for 2 hrs followed by bacterial infection measured after 6 hrs by Annexin/V-FITC staining based flow cytometry analysis (reference value: 37.61%); type: functional; details: time 8 hrs
Helicobacter pylori [18] = test: Protection against Helicobacter pylori ATCC 43504 infected (MOI 300:1) in human GES1 cell injury model assessed as necrotic cells at 50 uM pre-treated for 2 hrs followed by bacterial infection measured after 6 hrs by Annexin/V-FITC staining based flow cytometry analysis (reference value: 6.05%); type: functional; details: time 8 hrs
Helicobacter pylori [19] = test: Protection against Helicobacter pylori ATCC 43504 infected (MOI 300:1) in human GES1 cell injury model assessed as viable cells at 50 uM pre-treated for 2 hrs followed by bacterial infection measured after 6 hrs by Annexin/V-FITC staining based flow cytometry analysis (reference value: 47.43%); type: functional; details: time 8 hrs
Helicobacter pylori [20] = test: Protection against Helicobacter pylori ATCC 43504 infected (MOI 400:1) in human GES1 cell injury model assessed as viable cells at 50 uM pre-treated for 2 hrs followed by bacterial infection measured after 6 hrs by Annexin/V-FITC staining based flow cytometry analysis (reference value: 37.61%); type: functional; details: time 8 hrs
[21] = Acute toxicity in BALB/c mouse assessed as pathological abnormality in kidney at 1 g/Kg, po single dose administered for 7 days by HE staining based analysis; type: organism-based; details: in vivo, 1000 mg/kg, 168 h, time 7 day
Helicobacter pylori [22] = test: In vivo protection against Helicobacter pylori ATCC 43504 infected in BALB/c mouse gastric mucosa model assessed as effect on inflammatory cell infiltration at low dose administered once a day for 2 weeks by HE staining based analysis; type: functional, organism-based
Helicobacter pylori [23] = test: Protection against Helicobacter pylori ATCC 43504 infected (MOI 100:1) in human GES1 cell injury model assessed as necrotic cells at 50 uM pre-treated for 2 hrs followed by bacterial infection measured after 6 hrs by Annexin/V-FITC staining based flow cytometry analysis (reference value: 2.82%); type: functional; details: time 8 hrs
Helicobacter pylori [24] = test: as §1, with “100:1)” for “25:1)”, “late apoptotic” for “necrotic”, “4.16%)” for “0.66%)”; type: functional; details: time 8 hrs
Helicobacter pylori [25] = test: Protection against Helicobacter pylori ATCC 43504 infected (MOI 25:1) in human GES1 cell injury model assessed as late apoptotic cells at 25 uM pre-treated for 2 hrs followed by bacterial infection measured after 6 hrs by Annexin/V-FITC staining based flow cytometry analysis (reference value: 0.31%); type: functional; details: time 8 hrs
[26] = Acute toxicity in BALB/c mouse assessed as change in stool color at 1 g/Kg, po single dose administered for 7 days; type: organism-based; details: in vivo, 1000 mg/kg, 168 h, time 7 day
Helicobacter pylori [27] = test: Protection against Helicobacter pylori ATCC 43504 infected (MOI 100:1) in human GES1 cell injury model assessed as necrotic cells at 25 uM pre-treated for 2 hrs followed by bacterial infection measured after 6 hrs by Annexin/V-FITC staining based flow cytometry analysis (reference value: 2.82%); type: functional; details: time 8 hrs
GES1 = test: Induction of DNA damage in human GES1 cells infected (25 to 400:1 MOI) with Helicobacter pylori ATCC 43504 assessed as increase in gammaH2AX levels at 25 to 50 uM by SP8 laser confocal microscopic analysis; type: functional, cell-based; details: dose 25-50 µM

With O=C(Oc1n[se]c2ccccc12)c1cccc(F)c1 as the compound, how does the Activity (Helicobacter pylori [1]) read?
The Activity was 0.02%.

What about the Activity (Helicobacter pylori [2]) of the same compound?
The Activity was 0.51%.

What about the Activity [3] of the same compound?
Its Activity is “Non-toxic”.

And the Activity (Helicobacter pylori [4])?
The Activity was 47.7%.

And the Activity (Helicobacter pylori [5])?
Its Activity is 17.23%.

And the Activity (Helicobacter pylori [6])?
The Activity was “Active”.

What about the Activity (Helicobacter pylori [7]) of the same compound?
The Activity was 4.49%.

And the Activity (Helicobacter pylori [8])?
The Activity was 97.06%.

And the Activity (Helicobacter pylori [9])?
The Activity was 98.45%.

What about the Activity (Helicobacter pylori [10]) of the same compound?
Its Activity is 38.48%.

What about the Activity [11] of the same compound?
The Activity was “Non-toxic”.

What about the Activity (Helicobacter pylori [12]) of the same compound?
Its Activity is 0.02%.

And the Activity (Helicobacter pylori [13])?
The Activity was “Active”.

What about the Activity (Helicobacter pylori [14]) of the same compound?
The Activity was 99.06%.

And the Activity (Helicobacter pylori [15])?
The Activity was 0.21%.

What about the Activity (Helicobacter pylori [16]) of the same compound?
The Activity was “Active”.

And the Activity (Helicobacter pylori [17])?
Its Activity is 82.13%.

And the Activity (Helicobacter pylori [18])?
Its Activity is 2.01%.

What about the Activity (Helicobacter pylori [19]) of the same compound?
Its Activity is 92.33%.

And the Activity (Helicobacter pylori [20])?
The Activity was 89.4%.

And the Activity [21]?
The Activity was “Non-toxic”.

And the Activity (Helicobacter pylori [22])?
The Activity was “Active”.

And the Activity (Helicobacter pylori [23])?
Its Activity is 0.16%.

What about the Activity (Helicobacter pylori [24]) of the same compound?
Its Activity is 0.17%.

And the Activity (Helicobacter pylori [25])?
The Activity was 0.02%.

And the Activity [26]?
Its Activity is “Non-toxic”.

And the Activity (Helicobacter pylori [27])?
The Activity was 0.43%.

What about the Activity (GES1) of the same compound?
The Activity was “Active”.
